Data published in ChEMBL document CHEMBL1130633, “Beta-analogs of PLG (L-prolyl-L-leucyl-glycinamide): ex-chiral pool syntheses and dopamine D2 receptor modulating effects” (Bioorg Med Chem Lett, 1998).
Where a SMILES comes first, the peptide text is derived from it.

Target: D(2) dopamine receptor (Bos taurus) (UniProt P20288)
Test: Compound was evaluated for its ability to enhance the binding of the dopamine receptor agonist [3H]pramipexole to Dopamine receptor D2 at a concentration of 10E-9 M

Sequence of D(2) dopamine receptor (Bos taurus) (P20288 whole entry): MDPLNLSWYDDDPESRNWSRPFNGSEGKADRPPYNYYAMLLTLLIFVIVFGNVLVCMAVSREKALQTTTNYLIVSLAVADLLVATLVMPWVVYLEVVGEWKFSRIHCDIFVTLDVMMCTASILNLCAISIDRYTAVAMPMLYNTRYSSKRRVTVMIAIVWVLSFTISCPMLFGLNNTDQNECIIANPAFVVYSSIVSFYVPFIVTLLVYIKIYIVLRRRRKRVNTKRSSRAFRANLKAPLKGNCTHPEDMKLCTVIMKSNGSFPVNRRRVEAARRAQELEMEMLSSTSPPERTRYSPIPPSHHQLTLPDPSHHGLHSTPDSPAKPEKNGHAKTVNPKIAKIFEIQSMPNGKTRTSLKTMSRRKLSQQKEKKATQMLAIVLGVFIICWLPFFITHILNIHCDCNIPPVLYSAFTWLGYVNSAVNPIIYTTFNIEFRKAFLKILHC

Row | Binding [%] | SMILES
1 | 104 | CC(C)C[C@H](NC(=O)[C@@H]1CCNC1)C(=O)NCC(N)=O
2 | 107 | CC(C)C[C@H](NC(=O)[C@H]1CCNC1)C(=O)NCC(N)=O
3 | 108 | CC(C)C[C@H](NC(=O)[C@@H]1CNC[C@H]1Cc1ccccc1)C(=O)NCC(N)=O
4 | 109 | CC(C)C[C@H](NC(=O)[C@H]1CNC[C@@H]1Cc1ccccc1)C(=O)NCC(N)=O
5 | 104 | CC(C)C[C@H](NC(=O)[C@@H]1CNC[C@@H]1Cc1ccccc1)C(=O)NCC(N)=O
6 | 99.6 | CC(C)C[C@H](NC(=O)[C@H]1CNC[C@H]1Cc1ccccc1)C(=O)NCC(N)=O
7 | 109 | CC(C)C[C@H](NC(=O)[C@@H]1CCCN1)C(=O)NCC(N)=O (H-Pro-Leu-Gly-NH2)
